Source: patent US20020137929A1, “1 - (3-heterocyclylphenyl) isothiourea, -isourea, -guanidine and -amidine herbicidal agents” (Intellectual Property Department, BASF Aktiengesellschaft, priority 1998, published 2002)

Experiments:
ABUTH (Velvetleaf) = experiment: Postemergence herbicidal evaluation; type: in vivo, Abutilon theophrasti; conditions: postemergence
Procedure, shortened: (§1)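 Two-week-old seedlings sprayed with compound in 50/50 acetone/water plus 0.5% TWEEN 20, at about 0.0156 to 0.500 kg/ha, nozzle at 40 psi. Kept in greenhouse; rated visually 4-5 weeks after treatment on a 0-9 scale versus control, repeat tests averaged.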

AMBEL (Ragweed, Common) = experiment: Postemergence herbicidal evaluation; type: in vivo, Ambrosia artemisifolia; conditions: postemergence
Procedure, shortened: as §1

[1] = system: IPOHE (Morningglory, Ivyleaf); experiment: Postemergence herbicidal evaluation; type: in vivo, Ipomoea hederacea; conditions: postemergence
Procedure, shortened: as §1

ECHCG (Barnyardgrass) [2] = experiment: Postemergence herbicidal evaluation; type: in vivo, Echinochloa crus-galli; conditions: postemergence
Procedure, shortened: as §1

SETVI (Foxtail, Green) = experiment: Postemergence herbicidal evaluation; type: in vivo, Setaria viridis; conditions: postemergence
Procedure, shortened: as §1

[3] = system: GLXMAW (Soybean, Williams); experiment: Postemergence herbicidal evaluation; type: in vivo, Glycine max, (L.) Merr. cv Williams; conditions: postemergence
Procedure, shortened: as §1

[4] = system: TRZAWR (Wheat, Winter, cv Riband); experiment: Postemergence herbicidal evaluation; type: in vivo, Triticum aestivum; conditions: postemergence
Procedure, shortened: as §1

CASOB (Sicklepod) = experiment: Preemergence herbicidal evaluation; type: in vivo, Cassia obtusifolia; conditions: rated 4-5 weeks after treatment, rating scale 0-9
Procedure, shortened: (§2)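 Scores (0–9) reflect visual comparison with control plants for stand, vigor, malformation, size and chlorosis. Compound was applied to the soil after sowing, before emergence, as an aqueous acetone spray (about 0.0156–0.500 kg/ha), and cups were kept in a greenhouse for 4–5 weeks.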

[5] = system: CHEAL (Lambsquarters, Common); experiment: Preemergence herbicidal evaluation; type: in vivo, Chenopodium album; conditions: rated 4-5 weeks after treatment, rating scale 0-9
Procedure, shortened: as §2

GALAP (Galium) = experiment: Preemergence herbicidal evaluation; type: in vivo, Galium aparine; conditions: rated 4-5 weeks after treatment, rating scale 0-9
Procedure, shortened: as §2

[6] = system: IPOHE (Morningglory, Ivyleaf); experiment: Preemergence herbicidal evaluation; type: in vivo, Ipomoea hederacea; conditions: rated 4-5 weeks after treatment, rating scale 0-9
Procedure, shortened: as §2

ECHCG (Barnyardgrass) [7] = experiment: Preemergence herbicidal evaluation; type: in vivo, Echinochloa crus-galli; conditions: rated 4-5 weeks after treatment, rating scale 0-9
Procedure, shortened: as §2

ZEAMX (Corn, Field) = experiment: Preemergence herbicidal evaluation; type: in vivo, Zea mays; conditions: rated 4-5 weeks after treatment, rating scale 0-9
Procedure, shortened: as §2

For Cn1c(C(F)(F)F)cc(=O)n(-c2cc(N=C3SCC(=O)N3Cc3cccnc3)c(Cl)cc2F)c1=O [Compound 132, 3-{4-Chloro-2-fluoro-5-{[4-oxo-3-(3-pyridylmethyl)-2-thiazolidinylidene]amino}phenyl}-1-methyl-6-(trifluoromethyl)-2,4 (1H,3H)-pyrimidinedione], the “Herbicidal rating ABUTH” value (ABUTH (Velvetleaf); rate 0.0156 kg/ha) was 9.0, the “Herbicidal rating ABUTH” value (ABUTH (Velvetleaf); rate 0.0313 kg/ha) was 9.0 and the “Herbicidal rating ABUTH” value (ABUTH (Velvetleaf); rate 0.0625 kg/ha) was 9.0. The “Herbicidal rating AMBEL” value (AMBEL (Ragweed, Common); rate 0.0156 kg/ha) was 5.0, the “Herbicidal rating AMBEL” value (AMBEL (Ragweed, Common); rate 0.0313 kg/ha) was 9.0 and the “Herbicidal rating AMBEL” value (AMBEL (Ragweed, Common); rate 0.0625 kg/ha) was 9.0. For the same compound, the “Herbicidal rating IPOHE” value ([1]; rate 0.0156 kg/ha) was 6.0, the “Herbicidal rating IPOHE” value ([1]; rate 0.0313 kg/ha) was 9.0 and the “Herbicidal rating IPOHE” value ([1]; rate 0.0625 kg/ha) was 9.0. The “Herbicidal rating ECHCG” value (ECHCG (Barnyardgrass) [2]; rate 0.0156 kg/ha) was 1.0, the “Herbicidal rating ECHCG” value (ECHCG (Barnyardgrass) [2]; rate 0.0313 kg/ha) was 2.0 and the “Herbicidal rating ECHCG” value (ECHCG (Barnyardgrass) [2]; rate 0.0625 kg/ha) was 2.0. The “Herbicidal rating SETVI” value (SETVI (Foxtail, Green); rate 0.0156 kg/ha) was 1.0, the “Herbicidal rating SETVI” value (SETVI (Foxtail, Green); rate 0.0313 kg/ha) was 4.0 and the “Herbicidal rating SETVI” value (SETVI (Foxtail, Green); rate 0.0625 kg/ha) was 3.0. For the same compound, the “Herbicidal rating GLXMAW” value ([3]; rate 0.0156 kg/ha) was 5.0, the “Herbicidal rating GLXMAW” value ([3]; rate 0.0313 kg/ha) was 5.0 and the “Herbicidal rating GLXMAW” value ([3]; rate 0.0625 kg/ha) was 6.0. For the same compound, the “Herbicidal rating TRZAWR” value ([4]; rate 0.0156 kg/ha) was 3.0, the “Herbicidal rating TRZAWR” value ([4]; rate 0.0313 kg/ha) was 3.5 and the “Herbicidal rating TRZAWR” value ([4]; rate 0.0625 kg/ha) was 4.0. For the same compound, the “Preemergence herbicidal rating CASOB” value (CASOB (Sicklepod); rate 0.0625 kg/ha) was 0.0, the “Preemergence herbicidal rating CASOB” value (CASOB (Sicklepod); rate 0.2500 kg/ha) was 0.0 and the “Preemergence herbicidal rating CHEAL” value ([5]; rate 0.0625 kg/ha) was 9.0. The “Preemergence herbicidal rating CHEAL” value ([5]; rate 0.1250 kg/ha) was 9.0, the “Preemergence herbicidal rating CHEAL” value ([5]; rate 0.2500 kg/ha) was 9.0 and the “Preemergence herbicidal rating GALAP” value (GALAP (Galium); rate 0.0625 kg/ha) was 4.0. The “Preemergence herbicidal rating GALAP” value (GALAP (Galium); rate 0.1250 kg/ha) was 4.0, the “Preemergence herbicidal rating GALAP” value (GALAP (Galium); rate 0.2500 kg/ha) was 5.0 and the “Preemergence herbicidal rating IPOHE” value ([6]; rate 0.0625 kg/ha) was 0.0. The “Preemergence herbicidal rating IPOHE” value ([6]; rate 0.1250 kg/ha) was 0.0, the “Preemergence herbicidal rating IPOHE” value ([6]; rate 0.2500 kg/ha) was 2.0 and the “Preemergence herbicidal rating ECHCG” value (ECHCG (Barnyardgrass) [7]; rate 0.0625 kg/ha) was 0.0. For the same compound, the “Preemergence herbicidal rating ECHCG” value (ECHCG (Barnyardgrass) [7]; rate 0.1250 kg/ha) was 0.0, the “Preemergence herbicidal rating ECHCG” value (ECHCG (Barnyardgrass) [7]; rate 0.2500 kg/ha) was 7.0 and the “Preemergence herbicidal rating ZEAMX” value (ZEAMX (Corn, Field); rate 0.0625 kg/ha) was 0.0. The “Preemergence herbicidal rating ZEAMX” value (ZEAMX (Corn, Field); rate 0.1250 kg/ha) was 0.0 and the “Preemergence herbicidal rating ZEAMX” value (ZEAMX (Corn, Field); rate 0.2500 kg/ha) was 2.0.
With Cn1c(C(F)(F)F)cc(=O)n(-c2cc(N=C3SCC(=O)N3Cc3ccncc3)c(Cl)cc2F)c1=O [Compound 133, 3-{4-Chloro-2-fluoro-5-{[4-oxo-3-(4-pyridylmethyl)-2-thiazolidinylidene]amino}phenyl}-1-methyl-6-(trifluoromethyl)-2,4(1H,3H)-pyrimidinedione] the “Herbicidal rating ABUTH” value (ABUTH (Velvetleaf); rate 0.0156 kg/ha) was 9.0, the “Herbicidal rating ABUTH” value (ABUTH (Velvetleaf); rate 0.0313 kg/ha) was 9.0 and the “Herbicidal rating ABUTH” value (ABUTH (Velvetleaf); rate 0.0625 kg/ha) was 9.0. For the same compound, the “Herbicidal rating AMBEL” value (AMBEL (Ragweed, Common); rate 0.0156 kg/ha) was 9.0, the “Herbicidal rating AMBEL” value (AMBEL (Ragweed, Common); rate 0.0313 kg/ha) was 6.0 and the “Herbicidal rating AMBEL” value (AMBEL (Ragweed, Common); rate 0.0625 kg/ha) was 9.0. For the same compound, the “Herbicidal rating IPOHE” value ([1]; rate 0.0156 kg/ha) was 9.0, the “Herbicidal rating IPOHE” value ([1]; rate 0.0313 kg/ha) was 9.0 and the “Herbicidal rating IPOHE” value ([1]; rate 0.0625 kg/ha) was 9.0. The “Herbicidal rating ECHCG” value (ECHCG (Barnyardgrass) [2]; rate 0.0156 kg/ha) was 1.0, the “Herbicidal rating ECHCG” value (ECHCG (Barnyardgrass) [2]; rate 0.0313 kg/ha) was 1.0 and the “Herbicidal rating ECHCG” value (ECHCG (Barnyardgrass) [2]; rate 0.0625 kg/ha) was 1.0. The “Herbicidal rating SETVI” value (SETVI (Foxtail, Green); rate 0.0156 kg/ha) was 1.0, the “Herbicidal rating SETVI” value (SETVI (Foxtail, Green); rate 0.0313 kg/ha) was 1.0 and the “Herbicidal rating SETVI” value (SETVI (Foxtail, Green); rate 0.0625 kg/ha) was 2.0. For the same compound, the “Herbicidal rating GLXMAW” value ([3]; rate 0.0156 kg/ha) was 5.0, the “Herbicidal rating GLXMAW” value ([3]; rate 0.0313 kg/ha) was 5.0 and the “Herbicidal rating GLXMAW” value ([3]; rate 0.0625 kg/ha) was 5.0. For the same compound, the “Herbicidal rating TRZAWR” value ([4]; rate 0.0156 kg/ha) was 2.5, the “Herbicidal rating TRZAWR” value ([4]; rate 0.0313 kg/ha) was 3.0 and the “Herbicidal rating TRZAWR” value ([4]; rate 0.0625 kg/ha) was 3.5. For the same compound, the “Preemergence herbicidal rating CASOB” value (CASOB (Sicklepod); rate 0.0313 kg/ha) was 0.0, the “Preemergence herbicidal rating CASOB” value (CASOB (Sicklepod); rate 0.0625 kg/ha) was 0.0 and the “Preemergence herbicidal rating CASOB” value (CASOB (Sicklepod); rate 0.1250 kg/ha) was 0.0. The “Preemergence herbicidal rating CASOB” value (CASOB (Sicklepod); rate 0.2500 kg/ha) was 9.0, the “Preemergence herbicidal rating CHEAL” value ([5]; rate 0.0313 kg/ha) was 9.0 and the “Preemergence herbicidal rating CHEAL” value ([5]; rate 0.0625 kg/ha) was 9.0. For the same compound, the “Preemergence herbicidal rating CHEAL” value ([5]; rate 0.1250 kg/ha) was 9.0, the “Preemergence herbicidal rating CHEAL” value ([5]; rate 0.2500 kg/ha) was 9.0 and the “Preemergence herbicidal rating GALAP” value (GALAP (Galium); rate 0.0313 kg/ha) was 0.0. For the same compound, the “Preemergence herbicidal rating GALAP” value (GALAP (Galium); rate 0.0625 kg/ha) was 0.0, the “Preemergence herbicidal rating GALAP” value (GALAP (Galium); rate 0.1250 kg/ha) was 0.0 and the “Preemergence herbicidal rating GALAP” value (GALAP (Galium); rate 0.2500 kg/ha) was 0.0. The “Preemergence herbicidal rating IPOHE” value ([6]; rate 0.0313 kg/ha) was 0.0, the “Preemergence herbicidal rating IPOHE” value ([6]; rate 0.0625 kg/ha) was 0.0 and the “Preemergence herbicidal rating IPOHE” value ([6]; rate 0.1250 kg/ha) was 0.0. For the same compound, the “Preemergence herbicidal rating IPOHE” value ([6]; rate 0.2500 kg/ha) was 1.0, the “Preemergence herbicidal rating ECHCG” value (ECHCG (Barnyardgrass) [7]; rate 0.0313 kg/ha) was 0.0 and the “Preemergence herbicidal rating ECHCG” value (ECHCG (Barnyardgrass) [7]; rate 0.0625 kg/ha) was 0.0. The “Preemergence herbicidal rating ECHCG” value (ECHCG (Barnyardgrass) [7]; rate 0.1250 kg/ha) was 0.0, the “Preemergence herbicidal rating ECHCG” value (ECHCG (Barnyardgrass) [7]; rate 0.2500 kg/ha) was 0.0 and the “Preemergence herbicidal rating ZEAMX” value (ZEAMX (Corn, Field); rate 0.0313 kg/ha) was 0.0. For the same compound, the “Preemergence herbicidal rating ZEAMX” value (ZEAMX (Corn, Field); rate 0.0625 kg/ha) was 0.0, the “Preemergence herbicidal rating ZEAMX” value (ZEAMX (Corn, Field); rate 0.1250 kg/ha) was 0.0 and the “Preemergence herbicidal rating ZEAMX” value (ZEAMX (Corn, Field); rate 0.2500 kg/ha) was 0.0.
